What was measured:
Type in all cases: functional, cell-based
HT-29 = assay: Cytotoxicity activity against human HT-29 cells assessed as reduction in cell viability after 72 hrs by MTT assay; settings: HT-29, 72 h
KB = assay: Cytotoxicity activity against human KB cells assessed as reduction in cell viability after 72 hrs by MTT assay
HeLa S3 = assay: Cytotoxicity activity against human HeLa S3 cells assessed as reduction in cell viability after 72 hrs by MTT assay; settings: HeLa S3, 72 h
MCF7 = assay: Cytotoxicity activity against human MCF7 cells assessed as reduction in cell viability after 72 hrs by MTT assay; settings: MCF7, 72 h
HepG2 = assay: Cytotoxicity activity against human HepG2 cells assessed as reduction in cell viability after 72 hrs by MTT assay; settings: HepG2, 72 h

CC(C)=CC[C@@H]1C[C@]23C[C@@H](CC=C(C)C)C(C)(C)[C@](CC=C(C)C)(C(=O)C(C(=O)c4ccc(O)c(O)c4)=C2OC1(C)C)C3=O
IC50 (HT-29): > 10 µM
IC50 (KB): 5.3 µM
IC50 (HeLa S3): > 10 µM
IC50 (MCF7): 7.2 µM
IC50 (HepG2): > 10 µM

C=C(C)[C@H]1C[C@@H](C[C@@]23C[C@@H](/C=C/C(C)C)C(C)(C)[C@@](CC=C(C)C)(C2=O)c2oc4cc(O)c(O)cc4c(=O)c2C3=O)C1(C)C
IC50 (HT-29): > 10 µM
IC50 (KB): 5.2 µM
IC50 (HeLa S3): 6.2 µM
IC50 (MCF7): > 10 µM
IC50 (HepG2): > 10 µM

C=C(C)[C@H]1C[C@@H](C[C@]23C[C@@H](/C=C/C(C)C)C(C)(C)[C@](C/C=C(\C)CO)(C(=O)C(C(=O)c4ccc(O)c(O)c4)=C2O)C3=O)C1(C)C
IC50 (KB): > 10 µM
IC50 (HeLa S3): 8 µM

C=C(C)[C@H]1C[C@@H](C[C@]23C[C@@H](/C=C/C(C)C)C(C)(C)[C@](CC=C(C)C)(C(=O)C(C(=O)c4ccc(O)c(O)c4)=C2O)C3=O)C1(C)C
IC50 (HT-29): > 10 µM
IC50 (KB): 7 µM
IC50 (HeLa S3): 7.2 µM
IC50 (MCF7): > 10 µM
IC50 (HepG2): > 10 µM

CC(=O)[C@H]1C[C@@H](C[C@]23C[C@@H](/C=C/C(C)C)C(C)(C)[C@](CC=C(C)C)(C(=O)C(C(=O)c4ccc(O)c(O)c4)=C2O)C3=O)C1(C)C
IC50 (HT-29): > 10 µM
IC50 (KB): 7.4 µM
IC50 (HeLa S3): > 10 µM
IC50 (MCF7): > 10 µM
IC50 (HepG2): > 10 µM

C=C(C)[C@H]1C[C@@H](C[C@]23C[C@@H](/C=C/C(C)C)C(C)(C)[C@@]4(C[C@@H](C(C)(C)O)OC4=C(C(=O)c4ccc(O)c(O)c4)C2=O)C3=O)C1(C)C
IC50 (HT-29): > 10 µM
IC50 (KB): 5.9 µM
IC50 (HeLa S3): 6 µM
IC50 (MCF7): 9.3 µM
IC50 (HepG2): 9.4 µM

C=C(C)[C@H]1C[C@@H](C[C@]23C[C@@H](/C=C/C(C)C)C(C)(C)[C@](CC=C(C)C)(C(=O)C(C(=O)c4ccccc4)=C2O)C3=O)C1(C)C
IC50 (HT-29): > 10 µM
IC50 (KB): 9.9 µM
IC50 (HeLa S3): > 10 µM
IC50 (MCF7): > 10 µM
IC50 (HepG2): > 10 µM

COc1cccc2c1C(=O)c1c(O)c3c(c(O)c1C2=O)C[C@@](O)(C(=O)CO)C[C@@H]3O[C@H]1C[C@H](N)[C@H](O)[C@H](C)O1 [DOXORUBICIN]
IC50 (HT-29): 0.59 µM
IC50 (KB): 0.02 µM
IC50 (HeLa S3): 0.15 µM
IC50 (HepG2): 1 µM
